In the supplement of paper PMC13380429:

Key:
Details in all cases: 72 h
[1] = tested on: HepG2; assay: relative viability EC50 (midpoint between 100% and the lowest measured viability); higher = less toxic
[2] = tested on: Calu-3; assay: as above
[3] = tested on: Vero E6; assay: as above
[4] = tested on: U2OS; assay: as above
[5] = tested on: Caco-2; assay: as above
[6] = tested on: HepG2; assay: cell viability relative to DMSO; higher = less toxic
[7] = tested on: Calu-3; assay: as above
[8] = tested on: Vero E6; assay: as above
[9] = tested on: U2OS; assay: as above
[10] = tested on: Caco-2; assay: as above
[11] = tested on: HepG2; assay: drug sensitivity score (DSS) for viability; higher = more toxic; extreme values may be limits of the assay
[12] = tested on: Calu-3; assay: as above
[13] = tested on: Vero E6; assay: as above
[14] = tested on: U2OS; assay: as above
[15] = tested on: Caco-2; assay: as above

Compound	relative viability EC50 [1] [µM]	relative viability EC50 [2] [µM]	relative viability EC50 [3] [µM]	relative viability EC50 [4] [µM]	relative viability EC50 [5] [µM]	cell viability ([6]; 1 nM) [%]	cell viability ([6]; 10 nM) [%]	cell viability ([6]; 100 nM) [%]	cell viability ([6]; 1000 nM) [%]	cell viability ([6]; 10000 nM) [%]	cell viability ([7]; 1 nM) [%]	cell viability ([7]; 10 nM) [%]	cell viability ([7]; 100 nM) [%]	cell viability ([7]; 1000 nM) [%]	cell viability ([7]; 10000 nM) [%]	cell viability ([8]; 1 nM) [%]	cell viability ([8]; 10 nM) [%]	cell viability ([8]; 100 nM) [%]	cell viability ([8]; 1000 nM) [%]	cell viability ([8]; 10000 nM) [%]	cell viability ([9]; 1 nM) [%]	cell viability ([9]; 10 nM) [%]	cell viability ([9]; 100 nM) [%]	cell viability ([9]; 1000 nM) [%]	cell viability ([9]; 10000 nM) [%]	cell viability ([10]; 1 nM) [%]	cell viability ([10]; 10 nM) [%]	cell viability ([10]; 100 nM) [%]	cell viability ([10]; 1000 nM) [%]	cell viability ([10]; 10000 nM) [%]	drug sensitivity score [11]	drug sensitivity score [12]	drug sensitivity score [13]	drug sensitivity score [14]	drug sensitivity score [15]
COc1ccnc(C[S+]([O-])c2nc3cc(OC(F)F)ccc3[nH]2)c1OC (stereo not given) [pantoprazole]	> 10	> 10	> 10	> 10	> 10	106	107	111	99.2	117	99	99.1	98.4	95.9	94.8	95.4	97.1	91.7	91	99.2	109	105	102	101	99.3	99.5	104	98.7	103	89.4	0	0	0	0	0
CC(COc1ccccc1)N(CCCl)Cc1ccccc1 (stereo not given) [phenoxybenzamine]	> 10	> 10	> 10	> 10	> 10	101	106	88.7	89.4	96.5	96.5	109	106	101	95.8	102	98.3	101	97.9	94.3	96.3	102	93.4	114	93.6	86.6	92.7	102	95.9	86	0.6	0	0	0	0.5
CC(C)(N)Cc1ccccc1 [phentermine]	> 10	> 10	> 10	> 10	> 10	98.5	98.2	109	92.3	94.8	93.3	81	97.4	104	98.4	102	92.1	102	100	96.3	97.4	96	100	95.5	103	108	108	99.8	96.3	95.8	0	0	0	0	0
CCCCN1CCC(CNC(=O)c2c3n(c4ccccc24)CCCO3)CC1 [piboserod]	> 10	> 10	> 10	> 10	> 10	94.2	106	106	98.5	95.5	108	91.9	102	104	83	93.1	92.7	95	91.4	95.9	97.7	98.7	97.7	101	91.9	96	99.8	96.9	99	93.4	0	0.2	0	0	0
O=C(NNc1ccccc1)c1ccncc1 [plurisin-1]	> 10	> 10	> 10	> 10	> 10	110	109	104	114	77.8	97.9	96.6	93.2	103	106	102	108	106	96.7	95.4	103	96.3	101	99.9	99.6	106	106	105	91.6	101	0.4	0	0	0	0
CCCn1cnc2c1c(=O)n(CCCCC(C)=O)c(=O)n2C [propentofylline]	> 10	> 10	> 10	> 10	> 10	98.6	106	103	96.4	104	107	90.8	99	94.8	108	92.4	92.4	92.1	93.3	106	98.4	98.6	101	101	101	91.1	97.5	91.5	102	106	0	0	0	0	0
CCCOc1ccc(C(=O)OCCN(CC)CC)cc1N [proxymetacaine]	> 10	> 10	> 10	> 10	> 10	88.5	102	99.1	113	97.9	102	96.8	94.2	101	102	97.2	95.9	91.9	97.1	107	99.9	97	101	97.2	102	92.8	87	102	90	104	0	0	0	0	0
CC(=O)NC[C@H]1CN(c2ccc(-c3ccc(CNCc4cnn[nH]4)cc3)c(F)c2)C(=O)O1 [radezolid]	0.472	> 10	> 10	> 10	> 10	105	106	108	54.4	49.2	104	97.6	97.4	90.6	101	100	96.2	99.3	93.8	93.6	98.9	98.8	99.7	96.4	94.2	96.8	106	104	118	87.8	8.1	0	0	0	0
Cc1cc2nc3c(=O)[nH]c(=O)nc-3n(C[C@H](O)[C@H](O)[C@H](O)CO)c2cc1C [riboflavin]	> 10	> 10	> 10	> 10	> 10	95.9	85	93.7	93.4	93	102	104	86	107	92.2	96.6	91.9	96.3	94.2	95.4	97.4	101	96.2	102	94.6	99	95.3	92.7	107	96.8	0	0	0	0	0
O=c1c2ccccc2nc2n1CCc1c-2[nH]c2ccccc12 [rutaecarpine]	> 10	> 10	> 10	> 10	> 10	104	105	98.7	93.7	76.4	87	102	98.8	111	87.9	103	104	98.3	100	98.8	96.5	101	97	106	99.8	102	100	92.9	97.1	91.6	1.7	0	0	0	0
COc1cc2c(c(OC)c1OC)-c1c(cc3c(c1OC)OCO3)CC(C)C(C)C2 (stereo not given) [schisandrin-B]	> 10	> 10	> 10	> 10	> 10	89.1	99.3	95.8	105	101	96.3	83.3	94.5	105	90.1	96	98.5	93.4	96.1	101	101	91.8	102	97.3	93.5	97.5	99.5	98.9	100	77.4	0	0	0	0	0.8
CCCc1nn(C)c2c(=O)[nH]c(-c3cc(S(=O)(=O)N4CCN(C)CC4)ccc3OCC)nc12 [sildenafil]	> 10	> 10	> 10	> 10	> 10	96.7	104	99.4	102	81.8	106	94.6	105	91.8	129	98.3	111	95.1	101	96.1	99.3	98.3	101	99.9	103	93.7	86.3	93.8	84.6	93.9	0.3	0	0	0	0
CN1CCN(c2ncc(-c3cc(Cl)cc(Cl)c3Cl)c(N)n2)CC1 [sipatrigine]	> 10	> 10	> 10	> 10	> 10	100	103	110	98.4	86.4	92.1	105	108	111	92.3	110	107	100	101	94.5	104	102	104	103	92.9	85.5	91.1	92.3	91.8	85.3	0.2	0	0	0	0
OC[C@@H](O)[C@@H](O)[C@H](O)[C@@H](O)CO [sorbitol]	> 10	> 10	> 10	> 10	> 10	95.3	84	94.7	94.8	82.3	101	98	98.3	102	101	102	99.9	103	88.8	92.2	104	99.5	96.6	101	95.5	96.4	105	100	109	93.6	0	0	0.3	0	0
